Measured values as given in patent US20050153288A1, “Methods for identifying gibberellin responsive genes using cultured vegetable cells” (priority 2001, published 2005).
“Also recorded” adds a separate entry of the source. Read-outs that look alike come from different tables or passages of the source.

Tests used:
[1] = test system: CIGR1 gene and CIGR2 gene; experiment: Induction of CIGR1 and CIGR2 gene expression by gibberellin in cultured rice cells (Northern blot hybridization); type: cell-based, rice (Oryza sativa cv. Nipponbare); settings: for induction of CIGR1 and CIGR2 gene expression by gibberellin species: cultured rice cells treated for ten minutes
Method: (§1) (1) Rice cultured cells: The cultured cells of rice were induced from germinating rice seeds (Oryza sativa cv. Nipponbare) on an N6 agar plate containing 1 ppm 2,4-D (2,4-dichlorophenoxyacetic acid). The cells were successively cultured in liquid N6 medium as follows: Once a week, cells of about 1 ml in volume were transferred to 150 ml of N6 medium. Every two weeks, cell clusters were passed through a 20-mesh metal screen to reduce their size. Cells which had been transferred to 30 ml of medium with no screen treatment, and then shake-cultured for four to six days, were used for extraction of RNA for Northern blotting.
(§2) (2) RNA extraction: The extraction of total RNA from cultured cells and green leaves of rice was carried out according to the phenol-SDS method. A Polytron homogenizer was used to homogenize living tissue in the presence of about tenfold or more volume to tissue-volume of phenol (about 90% saturated with water), and a volume of buffer solution (50 mM Tris-HCl pH 9.0, 1% SDS, 50 mM NaCl) equal to this phenol volume. The aqueous phase obtained by centrifugation was then repeatedly extracted with phenol. Total nucleic acid was precipitated by adding 0.6 volume of isopropanol to the extract and stirring the mixture. After dissolving the precipitate in water, a 0.25 volume of 10M LiCl was added, and the mixture was cooled on ice. High molecular weight RNA was collected by centrifugation, washed with 70% ethanol, and then dissolved in a small volume of water to be used as an RNA sample.
[…] Gibberellin (GA3 dissolved in ethanol) was added to make up each final concentration, cells were cultured with shaking for predetermined periods, and then used for RNA extraction. Nipponbare plants grown for three weeks after seeding were sprayed with gibberellin. The third and fourth leaves were collected at certain intervals, and total RNA was extracted. Elicitor treatment was carried out by directly adding aqueous elicitor solution to cultured cells of rice.
(4) Hybridization: RNA for Northern hybridization was denatured using the glyoxal method. 2.7 μl of glyoxal (final concentration, 1M), 1.6 μl of sodium phosphate (pH 7.0, final concentration, 10 mM), and 8 μl of dimethylsulfoxide (final concentration, 50%) were added to 10 μg of total RNA (3.7 μl). The mixture was kept at 50° C. for one hour and then subjected to electrophoresis in 1.4% agarose (10 mM sodium phosphate, pH 7.0). After electrophoresis, RNA was blotted onto a nylon membrane (Biodyne A). The RNA was fixed onto the membrane by treatment for two hours at 80° C. Hybridization was carried out in a mixture of 50% formamide, 0.1% SDS, 0.1 mg/ml salmon sperm DNA, 5×SSPE (0.9 M NaCl, 50 mM sodium phosphate, 5 mM EDTA, pH 7.4), and 5× Denhardt's solution (0.1% bovine serum albumin, 0.1% Ficoll, 0.1% polyvinylpyrrolidone) at 42° C. for one day. The membrane was then washed with 0.1×SSC (15 mM NaCl, 1.5 mM sodium citrate) three times for five minutes each time at room temperature, and twice for 30 minutes each time at 65° C., and then exposed on x-ray film.

[2] = test system: CIGR1 gene and CIGR2 gene; experiment: Expression of CIGR1 and CIGR2 genes in green leaves of rice after GA3 spraying; type: in vivo, rice (Nipponbare); settings: third and fourth leaves, three weeks after seeding, sprayed with GA3 (50 μM)
Method: as §2
(§3) (3) A method for gibberellin treatment of cultured cells and green leaves: The cultured cells were pre-washed several times with 2,4-D-free N6 medium, and then suspended in the same medium and shaken for two hours at 25° C. […]
In the presence of auxins, cultured plant cells are thought to be in an undifferentiated state. […] Thus, the responses of these two genes to gibberellin were analyzed in the green leaves of rice. […]

[3] = test system: CHRC, a carotenoid-associated protein in the chromoplasts of cucumber petals; settings: cited from earlier work
[4] = test system: CIGR1 gene and CIGR2 gene; experiment: Effect of protein kinase/phosphatase inhibitors on GA3 induction of CIGR1 and CIGR2 genes in cultured rice cells; type: cell-based; settings: inhibitor added ten minutes before treatment; okadaic acid 1 μM, lavendustin A 30 μM, K-252a 20 μM
Method: (§4) FIG. 11 depicts photographs representing the effects of protein kinase inhibitors on elicitor response and gibberellin response. The following compounds were added ten minutes before treatment with chitin heptamer (GN7) or gibberellin (GA3). (A): the positive elicitor response control; (B) : okadaic acid (1 μM); (C) : lavendustin A (30 μM); (D) : K-252a (20 μM).
as §1, §2, §3

[5] = test system: CIGR1 gene and CIGR2 gene; experiment: Effect of protein kinase/phosphatase inhibitors on chitin heptamer induction of CIGR1 and CIGR2 genes in cultured rice cells; type: cell-based; settings: inhibitor added ten minutes before treatment; okadaic acid 1 μM, lavendustin A 30 μM, K-252a 20 μM
Method: as §4, §1, §2, §3

α-amylase = settings: aleurone layer of wheat, cited from earlier work
[6] = test system: elicitor-responsive genes; settings: K-252a pretreatment; cited from earlier work
[7] = test system: CIGR1 gene and CIGR2 gene; experiment: Elicitor (chitin/chitosan oligomer) induction of CIGR1 and CIGR2 gene expression in cultured rice cells (Northern blot hybridization); type: cell-based, rice (Oryza sativa cv. Nipponbare)
Method: as §1, §2
(3) A method for gibberellin treatment of cultured cells and green leaves: The cultured cells were pre-washed several times with 2,4-D-free N6 medium, and then suspended in the same medium and shaken for two hours at 25° C. Gibberellin (GA3 dissolved in ethanol) was added to make up each final concentration, cells were cultured with shaking for predetermined periods, and then used for RNA extraction. Nipponbare plants grown for three weeks after seeding were sprayed with gibberellin. The third and fourth leaves were collected at certain intervals, and total RNA was extracted. […]

[8] = ten minutes of GA3 treatment, 2,4-D-free medium

Structure (SMILES): C=C1C[C@]23C[C@@]1(O)CC[C@H]2[C@@]12CC[C@H](O)[C@@](C)(C(=O)O1)[C@H]2[C@@H]3C(=O)O [GA1]
- induction of CIGR1 and CIGR2 gene expression by gibberellin species [1]: induced the expression of both genes

Structure (SMILES): C=C1C[C@]23C[C@@]1(O)CC[C@H]2[C@@]12C=C[C@H](O)[C@@](C)(C(=O)O1)[C@H]2[C@@H]3C(=O)O [GA3]
- expression of CIGR1 and CIGR2 genes over time after GA3 treatment ([1]; cells pre-washed with 2,4-D-free medium, two hours of pre-culture in the same medium): Transient expression with a maximum at ten minutes after treatment
- induction of CIGR1 and CIGR2 gene expression by gibberellin species [1]: induced the expression of both genes
- change in gene expression (CIGR1, CIGR2) after GA3 treatment ([1]; suspension-cultured cells in medium comprising 2,4-D, observed for three hours after treatment): no significant change in expression amount was found; also recorded: No change in gene expression was detected
- GA3 concentration at which induction of expression of both genes began to appear [1, 8]: 10^−6 M
- GA3 concentration at which induction reached near saturation [1, 8]: ~10^−4 M
- time of maximum transient expression of both genes after spraying [2]: 30 min
- GA3 concentration required for induction of CHRC [3]: at least 10^−7 M
- GA3 concentration up to which CHRC expression level increased approximately linearly [3]: up to 10^−4 M

Structure (SMILES): C=C1C[C@]23C[C@H]1CC[C@H]2[C@@]12CC[C@H](O)[C@@](C)(C(=O)O1)[C@H]2[C@@H]3C(=O)O [GA4]
- induction of CIGR1 and CIGR2 gene expression by gibberellin species [1]: induced the expression of both genes

Structure (SMILES): C=C1C[C@]23C[C@H]1CC[C@H]2[C@]1(C(=O)O)CC[C@H](O)[C@@](C)(C(=O)O)[C@H]1[C@@H]3C(=O)O [GA13]
- induction of CIGR1 and CIGR2 gene expression by gibberellin species [1]: only active type gibberellins induced the expression of both genes

Structure (SMILES): C=C1C[C@]23C[C@@]1(O)CC[C@H]2[C@]1(C(=O)O)CCC[C@@](C)(C(=O)O)[C@H]1[C@@H]3C(=O)O [GA17]
- induction of CIGR1 and CIGR2 gene expression by gibberellin species [1]: only active type gibberellins induced the expression of both genes

Structure (SMILES): COC(=O)[C@@]1(O)C[C@H]2O[C@]1(C)n1c3ccccc3c3c4c(c5c6ccccc6n2c5c31)C(=O)NC4 [K-252-A]
- inhibition of induction of both genes by GA3 [4]: almost completely inhibited
- inhibition of induction of both genes by chitin heptamer [5]: almost completely inhibited
- inhibition of gibberellin's induction of α-amylase (α-amylase; listed as K252a): hardly inhibited induction
- inhibition of induction of expression of elicitor-responsive genes [6]: strongly inhibited

Structure (SMILES): O=C(O)c1cc(N(Cc2ccccc2O)Cc2cc(O)ccc2O)ccc1O [Lavendustin A]
- inhibition of induction of both genes by GA3 [4]: inhibited induction by GA3 almost completely
- inhibition of induction of both genes by chitin heptamer [5]: hardly inhibited

Structure (SMILES): CC(=O)N[C@H]1[C@H](O[C@@H]([C@H](O)[C@H](C=O)NC(C)=O)[C@H](O)CO)O[C@H](CO)[C@@H](O[C@@H]2O[C@H](CO)[C@@H](O[C@@H]3O[C@H](CO)[C@@H](O[C@@H]4O[C@H](CO)[C@@H](O[C@@H]5O[C@H](CO)[C@@H](O[C@@H]6O[C@H](CO)[C@@H](O)[C@H](O)[C@H]6NC(C)=O)[C@H](O)[C@H]5NC(C)=O)[C@H](O)[C@H]4NC(C)=O)[C@H](O)[C@H]3NC(C)=O)[C@H](O)[C@H]2NC(C)=O)[C@@H]1O [chitin heptamers, N-acetylchitoheptaose]
- response of both genes to chitin oligomers and chitosan oligomers ([7]; chitin monomers to heptamers, tetramer and heptamer chitosan oligomers): strongest responses
- time up to which expression continued to increase ([7]; time-course after chitin heptamer treatment): up to 90 minutes
- increase in mRNA amount of both genes after elicitor treatment ([7]; time-course in cultured rice cells): Significant increases in mRNA amount were observed in both genes five minutes after treatment

Structure (SMILES): C=C1[C@@H](O)[C@@H]2O[C@]3(CC[C@H](/C=C/[C@@H](C)[C@@H]4CC(C)=C[C@@]5(O[C@H](C[C@@](C)(O)C(=O)O)CC[C@H]5O)O4)O3)CC[C@H]2O[C@@H]1[C@@H](O)C[C@H](C)[C@H]1O[C@@]2(CCCCO2)CC[C@H]1C [okadaic acid]
- inhibition of induction of both genes by GA3 [4]: inhibited almost completely
- inhibition of induction of both genes by chitin heptamer [5]: hardly inhibited
- inhibition of gibberellin's induction of α-amylase (α-amylase): specifically inhibited; also recorded: inhibited by okadaic acid
